# Measurements: patent US20260275281A1, “COMPOSITIONS AND METHODS FOR DIFFERENTIATING RPE CELLS” (STEMCELL TECHNOLOGIES CANADA INC., priority 2023, published 2026)
# Test system: H9-derived RPE cells
# Conditions: increasing concentrations 10 μM, 25 µM and 50 μM in maturation medium, versus unsupplemented medium
# Experimental: RPE pigmentation levels of cells at different stages of differentiation, but usually day 49 mature (d) RPE, could be analysed by a melanin content assay. […] A total of 4×10^5 RPE were added per well of a 96 well u bottom plate and centrifuged at 500×g for 3 minutes. Once the supernatant was removed, cells were resuspended in 100 μL of D-PBS and transferred to a 96 well tissue culture plate. RPE were centrifuged at 300×g for 3 minutes and absorbance was measured at 490 nm. Melanin content was calculated relative to the synthetic standard.
substance,measurement,value
ferric ammonium citrate,melanogenesis (brightfield microscopy and melanin content assay),increasing levels of melanogenesis
